Data reported in publication PMC6540056, “A Thermostable Aspergillus fumigatus GH7 Endoglucanase Over-Expressed in Pichia pastoris Stimulates Lignocellulosic Biomass Hydrolysis” (International Journal of Molecular Sciences, 2019).

Molecular target: T1, Af-EGL7 (Aspergillus fumigatus, UniProt Q4WCM9)
T1 construct: gene AFUA_6G01800; ORF without predicted signal peptide in pPICZalphaA, alpha-factor secretion signal, C-terminal vector tag with His6 kept, from Pichia pastoris X-33, N-glycosylated, about 70 kDa on SDS-PAGE; forward primer encodes EF-QQPAA at N-terminus
T1 sequence (Q4WCM9 21-460): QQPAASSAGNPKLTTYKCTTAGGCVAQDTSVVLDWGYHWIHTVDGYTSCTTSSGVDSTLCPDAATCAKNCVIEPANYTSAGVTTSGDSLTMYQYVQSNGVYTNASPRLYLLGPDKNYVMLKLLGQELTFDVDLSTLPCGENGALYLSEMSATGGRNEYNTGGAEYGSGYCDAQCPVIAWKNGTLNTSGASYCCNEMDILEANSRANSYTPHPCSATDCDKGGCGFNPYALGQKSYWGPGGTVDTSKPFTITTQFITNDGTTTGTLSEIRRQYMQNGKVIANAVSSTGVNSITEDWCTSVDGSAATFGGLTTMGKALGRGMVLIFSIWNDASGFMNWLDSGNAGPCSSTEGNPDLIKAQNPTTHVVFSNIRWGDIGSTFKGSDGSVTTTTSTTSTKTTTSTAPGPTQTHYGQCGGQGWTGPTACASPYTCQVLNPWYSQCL
Test: colorimetric, Azo-Xyloglucan hydrolysis, […] nm
Assay type: biochemical
Settings: read-out: % inhibition at 50 mM

SMILES: OC[C@H]1O[C@@H](O[C@H]2[C@H](O)[C@@H](O)C(O)O[C@@H]2CO)[C@H](O)[C@@H](O)[C@@H]1O (stereo partly shown) [cellobiose]
- inhibition at 50000 µM: 35%
